According to ChEMBL document CHEMBL1201862, “PubChem BioAssay data set” (2004):
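Each compound was tested at five concentrations against cells in 96-well plates for 48 hours. The concentration for 50% growth inhibition is given as GI50.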 Active and inactive are the calls of the source. Cut-off read from the data, not from the text of the source: active = GI50 up to about 1.1 µM and inactive = higher.

What was measured:
Experiment in all cases: growth of human tumour cells (NCI), 48 h
[1] = tested on: NCI-H23
[2] = tested on: K562
[3] = tested on: SK-MEL-28
[4] = tested on: SW-620
[5] = tested on: IGROV-1
[6] = tested on: RXF 393
[7] = tested on: HCT-15
[8] = tested on: SK-OV-3
[9] = tested on: HOP-62
[10] = tested on: SK-MEL-2
[11] = tested on: HL-60
[12] = tested on: CAKI-1
[13] = tested on: SF-295
[14] = tested on: Malme-3M
[15] = tested on: NCI/ADR-RES
[16] = tested on: T47D
[17] = tested on: SR
[18] = tested on: M14
[19] = tested on: ACHN
[20] = tested on: HOP-92

Structure (SMILES) | GI50 [1] | GI50 [2] | GI50 [3] | GI50 [4] | GI50 [5] | GI50 [6] | GI50 [7] [µM] | GI50 [8] | GI50 [9] | GI50 [10] | GI50 [11] | GI50 [12] | GI50 [13] | GI50 [14] | GI50 [15] | GI50 [16] | GI50 [17] | GI50 [18] | GI50 [19] | GI50 [20]
CC1(C)OC2CC(=O)OCC23C1CC(=O)C1(C)C3CCC2(C)C(c3ccoc3)OC(=O)C3OC321 (centres undefined) | > 125 µM (inactive) | 78.9 µM (inactive) | > 125 µM (inactive) | > 125 µM (inactive) | > 125 µM (inactive) | > 117 µM (inactive) | > 125 | > 125 µM (inactive) | > 125 µM (inactive) | > 125 µM (inactive) | 101 µM (inactive) | 16.1 µM (inactive) | > 125 µM (inactive) | 123 µM (inactive) | > 125 µM (inactive) | – | – | – | – | –
CCCCC(=O)c1c(O)nc2sccn2c1=O | > 10 µM (inactive) | – | > 10 µM (inactive) | > 10 µM (inactive) | > 10 µM (inactive) | > 10 µM (inactive) | > 10 | > 10 µM (inactive) | > 10 µM (inactive) | > 10 µM (inactive) | > 10 µM (inactive) | > 10 µM (inactive) | > 10 µM (inactive) | > 10 µM (inactive) | > 10 µM (inactive) | > 10 µM (inactive) | > 10 µM (inactive) | > 10 µM (inactive) | > 10 µM (inactive) | –
CCCCn1/c(=N/C(=S)N(C)C)ss/c1=N\C(=S)N(C)C | > 100 µM (inactive) | > 100 µM (inactive) | > 100 µM (inactive) | > 100 µM (inactive) | > 100 µM (inactive) | > 100 µM (inactive) | > 100 | > 100 µM (inactive) | > 100 µM (inactive) | > 100 µM (inactive) | > 100 µM (inactive) | > 100 µM (inactive) | > 100 µM (inactive) | > 100 µM (inactive) | – | – | > 100 µM (inactive) | > 100 µM (inactive) | > 100 µM (inactive) | > 100 µM (inactive)
Nc1nc(Cl)nc2c1ncn2C1CCC(CO)O1 (centres undefined) | 87.9 µM (inactive) | – | > 100 µM (inactive) | > 100 µM (inactive) | > 100 µM (inactive) | > 100 µM (inactive) | > 100 | > 100 µM (inactive) | > 100 µM (inactive) | > 100 µM (inactive) | – | > 100 µM (inactive) | > 100 µM (inactive) | > 100 µM (inactive) | 90.6 µM (inactive) | > 100 µM (inactive) | > 100 µM (inactive) | > 100 µM (inactive) | – | > 100 µM (inactive)
CN(C)C(=O)OCOC(=O)N(C)C | > 100 µM (inactive) | > 100 µM (inactive) | > 100 µM (inactive) | > 100 µM (inactive) | > 100 µM (inactive) | > 100 µM (inactive) | > 100 | > 100 µM (inactive) | > 100 µM (inactive) | > 100 µM (inactive) | > 31.6 µM (inactive) | > 100 µM (inactive) | > 100 µM (inactive) | > 100 µM (inactive) | > 100 µM (inactive) | – | – | – | – | > 92.5 µM (inactive)
COc1ccc(C2CC(c3c(O)ccc4ccccc34)=NN2)cc1OC (centres undefined) | 3.22 µM (inactive) | 4.38 µM (inactive) | 5.16 µM (inactive) | – | 4.43 µM (inactive) | 7.6 µM (inactive) | 4.45 | 7.94 µM (inactive) | 3.86 µM (inactive) | 6 µM (inactive) | 4.42 µM (inactive) | 4.9 µM (inactive) | 2.55 µM (inactive) | 4.02 µM (inactive) | 2.62 µM (inactive) | 4.04 µM (inactive) | – | 4.1 µM (inactive) | 1.86 µM (inactive) | 3.7 µM (inactive)
O=C(CCC1C(=O)NC(=S)NC1=O)c1ccc2ccccc2c1 | > 100 µM (inactive) | > 100 µM (inactive) | > 100 µM (inactive) | > 100 µM (inactive) | > 100 µM (inactive) | > 100 µM (inactive) | > 100 | > 100 µM (inactive) | > 100 µM (inactive) | > 100 µM (inactive) | > 100 µM (inactive) | > 100 µM (inactive) | > 100 µM (inactive) | > 100 µM (inactive) | – | – | > 100 µM (inactive) | > 100 µM (inactive) | > 100 µM (inactive) | > 100 µM (inactive)
CC(C)(C)c1cc(O)ccc1O [E319] | > 100 µM (inactive) | > 68.5 µM (inactive) | > 100 µM (inactive) | 37.8 µM (inactive) | > 100 µM (inactive) | – | > 100 | > 100 µM (inactive) | > 100 µM (inactive) | 1.71 µM (inactive) | 9.73 µM (inactive) | > 57.8 µM (inactive) | > 100 µM (inactive) | > 19.3 µM (inactive) | > 79.6 µM (inactive) | 3.83 µM (inactive) | 1.1 µM (active) | > 100 µM (inactive) | > 85.5 µM (inactive) | > 67.5 µM (inactive)
